From article PMC4457528, “Identification of Novel Small Molecule Inhibitors of Oncogenic RET Kinase” (PLoS ONE, 2015)
Read-outs that look alike come from different tables or passages of the source.

What was measured:
Test in all cases: KinomeScan kinase panel, single concentration 10 µM
Format in all cases: binding
KinomeScan kinase panel [1] = molecular target: T1, KinomeScan kinase panel (Homo sapiens, UniProt P36888, D835Y); conditions: FLT3(D835Y), 10 µM; read-out: score (%)
T1 construct: purchased DiscoveRx (KinomeScan)
T1 sequence (P36888 27-993 D835Y): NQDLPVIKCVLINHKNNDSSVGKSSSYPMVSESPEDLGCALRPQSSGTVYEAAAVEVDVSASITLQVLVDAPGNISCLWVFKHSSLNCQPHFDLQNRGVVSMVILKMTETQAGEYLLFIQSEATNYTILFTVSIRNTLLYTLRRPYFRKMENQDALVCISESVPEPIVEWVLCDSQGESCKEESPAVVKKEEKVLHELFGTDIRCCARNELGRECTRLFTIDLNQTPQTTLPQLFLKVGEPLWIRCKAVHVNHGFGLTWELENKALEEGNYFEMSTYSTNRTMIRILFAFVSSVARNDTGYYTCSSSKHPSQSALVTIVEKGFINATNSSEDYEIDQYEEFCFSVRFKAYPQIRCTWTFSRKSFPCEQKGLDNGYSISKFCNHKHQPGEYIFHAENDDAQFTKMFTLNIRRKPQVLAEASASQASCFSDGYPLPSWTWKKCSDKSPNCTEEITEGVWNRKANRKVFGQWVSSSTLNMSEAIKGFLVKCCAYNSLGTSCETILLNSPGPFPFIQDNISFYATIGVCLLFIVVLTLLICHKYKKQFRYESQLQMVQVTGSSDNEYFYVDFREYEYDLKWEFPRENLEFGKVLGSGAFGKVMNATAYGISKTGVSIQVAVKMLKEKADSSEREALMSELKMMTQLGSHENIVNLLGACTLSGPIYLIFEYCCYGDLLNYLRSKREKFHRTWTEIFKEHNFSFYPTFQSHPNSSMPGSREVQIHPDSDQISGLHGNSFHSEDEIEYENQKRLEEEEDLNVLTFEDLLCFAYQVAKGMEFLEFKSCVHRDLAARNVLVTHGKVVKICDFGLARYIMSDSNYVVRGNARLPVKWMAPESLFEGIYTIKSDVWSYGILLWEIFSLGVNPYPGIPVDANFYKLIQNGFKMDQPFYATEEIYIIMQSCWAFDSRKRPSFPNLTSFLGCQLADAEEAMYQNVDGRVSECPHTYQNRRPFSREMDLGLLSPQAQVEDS

KinomeScan kinase panel [2] = molecular target: T2, KinomeScan kinase panel (Homo sapiens, UniProt P37173); conditions: read-out: score (%)
T2 construct: purchased DiscoveRx (KinomeScan)

KinomeScan kinase panel [3] = molecular target: T3, KinomeScan kinase panel (Homo sapiens, UniProt P52564); conditions: MEK6, 10 µM; read-out: score (%)
T3 construct: purchased DiscoveRx (KinomeScan)
T3 sequence (P52564 1-334): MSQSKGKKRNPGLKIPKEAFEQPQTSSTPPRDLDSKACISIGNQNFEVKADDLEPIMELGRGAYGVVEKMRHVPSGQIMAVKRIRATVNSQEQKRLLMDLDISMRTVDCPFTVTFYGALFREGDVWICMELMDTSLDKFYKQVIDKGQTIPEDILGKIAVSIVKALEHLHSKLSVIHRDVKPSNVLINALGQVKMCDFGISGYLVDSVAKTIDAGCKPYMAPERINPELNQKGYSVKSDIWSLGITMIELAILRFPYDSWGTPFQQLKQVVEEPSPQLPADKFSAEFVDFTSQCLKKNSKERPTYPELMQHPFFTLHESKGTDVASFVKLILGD

KinomeScan kinase panel [4] = molecular target: T4, KinomeScan kinase panel (Homo sapiens, UniProt P57059); conditions: 10 µM
T4 construct: purchased DiscoveRx (KinomeScan)

KinomeScan kinase panel [5] = molecular target: T5, KinomeScan kinase panel (Homo sapiens, UniProt Q14680); conditions: MELK, 10 µM; read-out: score (%)
T5 construct: purchased DiscoveRx (KinomeScan)

KinomeScan kinase panel [6] = molecular target: T6, KinomeScan kinase panel (Homo sapiens, UniProt Q9H2K8); conditions: read-out: score (%)
T6 construct: purchased DiscoveRx (KinomeScan)
T6 sequence (Q9H2K8 1-898): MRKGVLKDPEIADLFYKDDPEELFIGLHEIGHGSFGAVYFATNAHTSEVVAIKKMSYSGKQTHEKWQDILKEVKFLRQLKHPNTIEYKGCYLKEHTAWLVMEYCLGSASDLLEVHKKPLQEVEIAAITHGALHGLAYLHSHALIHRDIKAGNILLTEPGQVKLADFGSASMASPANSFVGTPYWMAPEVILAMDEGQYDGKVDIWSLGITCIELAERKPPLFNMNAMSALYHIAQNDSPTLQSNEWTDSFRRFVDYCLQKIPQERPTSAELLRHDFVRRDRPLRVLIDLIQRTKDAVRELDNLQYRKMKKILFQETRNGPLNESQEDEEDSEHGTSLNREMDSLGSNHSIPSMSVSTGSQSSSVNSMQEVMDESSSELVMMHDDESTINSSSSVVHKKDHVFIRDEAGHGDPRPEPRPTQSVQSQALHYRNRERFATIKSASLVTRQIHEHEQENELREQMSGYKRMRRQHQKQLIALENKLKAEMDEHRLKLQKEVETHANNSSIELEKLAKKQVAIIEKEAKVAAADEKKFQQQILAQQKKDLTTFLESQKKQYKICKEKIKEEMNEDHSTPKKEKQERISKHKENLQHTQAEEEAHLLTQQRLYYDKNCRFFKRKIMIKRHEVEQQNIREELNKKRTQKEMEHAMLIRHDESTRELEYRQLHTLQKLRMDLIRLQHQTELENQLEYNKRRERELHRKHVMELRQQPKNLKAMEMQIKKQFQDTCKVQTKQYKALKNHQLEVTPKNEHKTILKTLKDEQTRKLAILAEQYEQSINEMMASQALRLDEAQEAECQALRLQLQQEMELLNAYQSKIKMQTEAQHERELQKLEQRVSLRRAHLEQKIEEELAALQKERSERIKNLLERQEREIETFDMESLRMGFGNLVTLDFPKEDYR

KinomeScan kinase panel [7] = molecular target: T7, KinomeScan kinase panel (Homo sapiens, UniProt Q9H4B4); conditions: read-out: score (%)
T7 construct: purchased DiscoveRx (KinomeScan)

KinomeScan kinase panel [8] = molecular target: T8, KinomeScan kinase panel (Homo sapiens, UniProt Q9Y5S2); conditions: MRCKB, 10 µM; read-out: score (%)
T8 construct: purchased DiscoveRx (KinomeScan)
T8 sequence (Q9Y5S2 whole entry): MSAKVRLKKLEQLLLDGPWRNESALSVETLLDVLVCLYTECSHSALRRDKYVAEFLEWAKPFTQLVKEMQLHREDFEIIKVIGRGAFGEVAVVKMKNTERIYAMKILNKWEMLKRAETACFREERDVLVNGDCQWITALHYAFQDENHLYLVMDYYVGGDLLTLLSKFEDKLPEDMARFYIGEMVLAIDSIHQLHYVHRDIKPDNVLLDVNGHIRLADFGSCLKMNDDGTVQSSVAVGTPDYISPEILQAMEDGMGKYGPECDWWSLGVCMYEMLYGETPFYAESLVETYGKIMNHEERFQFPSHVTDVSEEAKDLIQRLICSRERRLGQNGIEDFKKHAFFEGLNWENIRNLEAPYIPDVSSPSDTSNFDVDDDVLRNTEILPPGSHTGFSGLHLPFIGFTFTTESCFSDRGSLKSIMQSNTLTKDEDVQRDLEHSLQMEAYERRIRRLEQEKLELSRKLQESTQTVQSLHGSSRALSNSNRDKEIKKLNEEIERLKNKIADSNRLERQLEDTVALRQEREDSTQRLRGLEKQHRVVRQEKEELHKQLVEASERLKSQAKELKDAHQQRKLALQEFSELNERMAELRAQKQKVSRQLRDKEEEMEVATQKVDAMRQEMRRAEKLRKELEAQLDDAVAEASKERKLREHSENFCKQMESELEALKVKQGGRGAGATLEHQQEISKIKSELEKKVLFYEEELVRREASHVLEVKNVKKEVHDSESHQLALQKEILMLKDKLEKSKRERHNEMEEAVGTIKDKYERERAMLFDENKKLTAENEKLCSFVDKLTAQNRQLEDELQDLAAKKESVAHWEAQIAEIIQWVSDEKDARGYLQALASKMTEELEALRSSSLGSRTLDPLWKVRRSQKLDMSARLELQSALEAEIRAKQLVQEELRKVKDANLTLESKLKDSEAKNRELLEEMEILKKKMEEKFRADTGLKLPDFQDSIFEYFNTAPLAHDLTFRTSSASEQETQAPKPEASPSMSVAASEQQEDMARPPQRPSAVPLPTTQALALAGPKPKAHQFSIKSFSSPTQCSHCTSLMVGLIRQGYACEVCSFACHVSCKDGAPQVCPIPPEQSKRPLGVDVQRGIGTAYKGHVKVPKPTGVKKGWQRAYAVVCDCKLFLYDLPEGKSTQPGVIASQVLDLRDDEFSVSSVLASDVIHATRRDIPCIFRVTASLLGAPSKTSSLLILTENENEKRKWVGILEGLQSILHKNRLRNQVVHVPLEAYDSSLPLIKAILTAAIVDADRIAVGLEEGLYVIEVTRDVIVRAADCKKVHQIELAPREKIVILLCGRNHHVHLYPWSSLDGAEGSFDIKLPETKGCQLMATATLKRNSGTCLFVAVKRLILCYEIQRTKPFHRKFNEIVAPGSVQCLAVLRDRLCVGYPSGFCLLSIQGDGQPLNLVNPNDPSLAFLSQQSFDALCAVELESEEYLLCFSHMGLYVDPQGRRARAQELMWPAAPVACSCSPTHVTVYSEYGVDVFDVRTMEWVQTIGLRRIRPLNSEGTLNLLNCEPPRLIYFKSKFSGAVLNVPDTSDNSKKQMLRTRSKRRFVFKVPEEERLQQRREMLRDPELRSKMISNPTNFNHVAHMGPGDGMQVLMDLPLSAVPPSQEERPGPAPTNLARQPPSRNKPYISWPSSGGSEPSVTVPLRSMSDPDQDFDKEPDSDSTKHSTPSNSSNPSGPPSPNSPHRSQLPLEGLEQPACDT

T7 sequence (Q9H4B4 whole entry): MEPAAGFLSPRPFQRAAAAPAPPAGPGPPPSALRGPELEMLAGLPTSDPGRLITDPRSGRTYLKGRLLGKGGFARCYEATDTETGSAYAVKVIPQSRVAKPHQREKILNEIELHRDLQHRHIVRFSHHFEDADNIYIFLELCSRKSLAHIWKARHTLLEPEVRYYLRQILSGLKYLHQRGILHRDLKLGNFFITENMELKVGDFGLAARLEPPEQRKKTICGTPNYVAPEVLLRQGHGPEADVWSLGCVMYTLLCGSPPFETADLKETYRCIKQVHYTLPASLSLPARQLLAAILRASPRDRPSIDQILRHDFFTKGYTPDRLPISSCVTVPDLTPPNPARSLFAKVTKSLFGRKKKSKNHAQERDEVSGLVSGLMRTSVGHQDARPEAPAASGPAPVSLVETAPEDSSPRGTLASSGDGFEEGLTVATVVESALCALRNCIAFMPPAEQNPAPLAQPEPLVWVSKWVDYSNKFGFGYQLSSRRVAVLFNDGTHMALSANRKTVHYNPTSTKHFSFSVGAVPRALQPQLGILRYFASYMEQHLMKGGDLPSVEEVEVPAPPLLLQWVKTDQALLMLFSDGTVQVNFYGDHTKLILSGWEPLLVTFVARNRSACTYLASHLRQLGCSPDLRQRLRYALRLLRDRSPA
T4 sequence (P57059 whole entry): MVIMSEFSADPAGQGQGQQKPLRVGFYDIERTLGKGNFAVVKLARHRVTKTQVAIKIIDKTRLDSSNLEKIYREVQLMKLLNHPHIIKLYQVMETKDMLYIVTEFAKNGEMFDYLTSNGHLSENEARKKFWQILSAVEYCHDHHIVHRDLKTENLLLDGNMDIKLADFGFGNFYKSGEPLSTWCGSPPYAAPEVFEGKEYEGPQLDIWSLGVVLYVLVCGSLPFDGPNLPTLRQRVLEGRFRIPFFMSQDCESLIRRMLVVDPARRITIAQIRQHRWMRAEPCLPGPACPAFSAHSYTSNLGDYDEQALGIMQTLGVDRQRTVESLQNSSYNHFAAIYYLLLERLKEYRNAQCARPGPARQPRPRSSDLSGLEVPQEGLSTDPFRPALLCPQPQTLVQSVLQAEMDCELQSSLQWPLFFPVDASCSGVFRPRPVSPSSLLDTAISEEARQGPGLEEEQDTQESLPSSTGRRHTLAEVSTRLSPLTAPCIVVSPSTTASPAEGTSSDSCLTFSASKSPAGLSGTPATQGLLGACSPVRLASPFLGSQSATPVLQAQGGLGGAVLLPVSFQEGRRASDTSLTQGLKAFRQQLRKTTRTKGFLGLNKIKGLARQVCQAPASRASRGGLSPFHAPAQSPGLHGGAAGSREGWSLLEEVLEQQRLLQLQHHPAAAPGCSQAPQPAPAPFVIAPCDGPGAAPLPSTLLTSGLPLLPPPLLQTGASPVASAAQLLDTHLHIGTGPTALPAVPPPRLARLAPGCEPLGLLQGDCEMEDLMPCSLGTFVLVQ
T2 sequence (P37173 23-567): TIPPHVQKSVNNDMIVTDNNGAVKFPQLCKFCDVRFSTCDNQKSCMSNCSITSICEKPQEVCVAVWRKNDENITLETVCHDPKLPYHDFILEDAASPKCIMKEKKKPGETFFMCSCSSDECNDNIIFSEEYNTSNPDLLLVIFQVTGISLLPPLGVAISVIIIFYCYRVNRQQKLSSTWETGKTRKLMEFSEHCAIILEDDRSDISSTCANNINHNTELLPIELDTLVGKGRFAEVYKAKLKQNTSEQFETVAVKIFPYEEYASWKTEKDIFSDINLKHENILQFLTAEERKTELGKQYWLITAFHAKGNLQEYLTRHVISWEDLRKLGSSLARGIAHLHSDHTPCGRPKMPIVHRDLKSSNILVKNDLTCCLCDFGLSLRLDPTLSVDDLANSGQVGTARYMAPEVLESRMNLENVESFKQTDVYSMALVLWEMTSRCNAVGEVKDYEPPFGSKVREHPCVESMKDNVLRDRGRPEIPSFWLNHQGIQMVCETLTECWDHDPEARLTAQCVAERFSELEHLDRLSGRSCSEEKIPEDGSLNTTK
T5 sequence (Q14680 whole entry): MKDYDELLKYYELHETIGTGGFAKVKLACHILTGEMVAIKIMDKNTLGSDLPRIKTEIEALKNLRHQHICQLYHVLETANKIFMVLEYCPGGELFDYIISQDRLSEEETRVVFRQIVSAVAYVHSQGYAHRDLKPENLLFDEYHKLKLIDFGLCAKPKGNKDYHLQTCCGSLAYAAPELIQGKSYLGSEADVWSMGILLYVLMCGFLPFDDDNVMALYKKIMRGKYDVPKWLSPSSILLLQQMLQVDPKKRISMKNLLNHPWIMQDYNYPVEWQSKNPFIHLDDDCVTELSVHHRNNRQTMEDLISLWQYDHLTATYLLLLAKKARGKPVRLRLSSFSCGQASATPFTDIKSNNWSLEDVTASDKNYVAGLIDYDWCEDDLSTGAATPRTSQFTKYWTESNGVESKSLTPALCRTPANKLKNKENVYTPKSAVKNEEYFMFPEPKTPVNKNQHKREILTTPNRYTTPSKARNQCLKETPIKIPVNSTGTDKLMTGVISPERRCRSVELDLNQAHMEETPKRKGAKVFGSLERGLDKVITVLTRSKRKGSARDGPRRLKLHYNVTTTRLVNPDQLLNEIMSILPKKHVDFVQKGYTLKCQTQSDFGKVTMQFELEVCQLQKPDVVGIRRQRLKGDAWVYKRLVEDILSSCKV

CCN1CCN(Cc2ccc(NC(=O)c3ccc(C)c(NC(=O)c4cncc(-c5cccs5)c4)c3)cc2C(F)(F)F)CC1 [ALW-II-41-27] showed a remaining binding at 10 µM (KinomeScan kinase panel [1]) of 3.3%, a remaining binding at 10 µM (KinomeScan kinase panel [2]; kinase TGFBR2, 10 µM) of 4.6% and a remaining binding at 10 µM (KinomeScan kinase panel [3]) of over 30%. For the same molecule, the “score (%)” value (KinomeScan kinase panel [4]; kinase SIK) was 0.2%, the remaining binding at 10 µM (KinomeScan kinase panel [5]) was over 30% and the remaining binding at 10 µM (KinomeScan kinase panel [6]; kinase TAOK3, 10 µM) was 2.8%. The remaining binding at 10 µM (KinomeScan kinase panel [7]; PLK3, 10 µM) was over 30% and the remaining binding at 10 µM (KinomeScan kinase panel [8]) was over 30%.

Work on CCN1CCN(Cc2ccc(NC(=O)c3ccc(C)c(C#Cc4cccnc4)c3)cc2C(F)(F)F)CC1 [XMD15-44] yielded a remaining binding at 10 µM (KinomeScan kinase panel [1]) of 0.5%, a remaining binding at 10 µM (KinomeScan kinase panel [2]; kinase TGFBR2, 10 µM) of 1.3% and a remaining binding at 10 µM (KinomeScan kinase panel [3]) of over 30%. For the same molecule, the “score (%)” value (KinomeScan kinase panel [4]; kinase SIK) was 0.45%, the remaining binding at 10 µM (KinomeScan kinase panel [5]) was 8.1% and the remaining binding at 10 µM (KinomeScan kinase panel [6]; kinase TAOK3, 10 µM) was 0%. It also gave a remaining binding at 10 µM (KinomeScan kinase panel [7]; kinase PLK3, 10 µM) of 90% and a remaining binding at 10 µM (KinomeScan kinase panel [8]) of over 30%.

Work on CCN1CCN(Cc2ccc(NC(=O)c3ccc(C)c(/C=C/c4cnc5[nH]ccc5c4Cl)c3)cc2C(F)(F)F)CC1 [HG-6-63-01, (E)-3-(2-(4-chloro-1H-pyrrolo[2,3-b]pyridin-5-yl)vinyl)-N-(4-((4-ethylpiperazin-1-yl)methyl)-3-(trifluoromethyl)phenyl)-4-methylbenzamide] yielded a remaining binding at 10 µM (KinomeScan kinase panel [1]) of 0.85%, a remaining binding at 10 µM (KinomeScan kinase panel [2]; TGFBR2, 10 µM) of 2.8% and a remaining binding at 10 µM (KinomeScan kinase panel [3]) of over 30%. For the same molecule, the “score (%)” value (KinomeScan kinase panel [4]; SNF1LK) was 0.3%, the remaining binding at 10 µM (KinomeScan kinase panel [5]) was 22% and the remaining binding at 10 µM (KinomeScan kinase panel [6]; TAOK3, 10 µM) was 0.1%. The remaining binding at 10 µM (KinomeScan kinase panel [7]; PLK3, 10 µM) was over 30% and the remaining binding at 10 µM (KinomeScan kinase panel [8]) was 30%.
